# In patent US8895733B2 (Novartis AG, priority 2010, dated 2014):
# Biological target: T1, Nav 1.7 (Homo sapiens, UniProt Q15858)
# T1 construct: expressed in transfected cells
# Experiment: Whole-cell voltage clamp electrophysiology, automated patch clamp (marker c in Table of Examples)
# Assay type: cell-based
# Conditions: marker c = Automated patch clamp data; read-out: Nav 1.7 activity
# How it was run: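 A voltage protocol weighted toward inactivated-state block was used to test compounds on stably expressing cells, with pulses from −65 mV holding to −10 mV test and −100 mV. Currents came from whole-cell automated patch-clamp recordings, either IonWorks Quattro or other automated instruments, usually in perforated-patch mode.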
# T1 sequence (Q15858 whole entry): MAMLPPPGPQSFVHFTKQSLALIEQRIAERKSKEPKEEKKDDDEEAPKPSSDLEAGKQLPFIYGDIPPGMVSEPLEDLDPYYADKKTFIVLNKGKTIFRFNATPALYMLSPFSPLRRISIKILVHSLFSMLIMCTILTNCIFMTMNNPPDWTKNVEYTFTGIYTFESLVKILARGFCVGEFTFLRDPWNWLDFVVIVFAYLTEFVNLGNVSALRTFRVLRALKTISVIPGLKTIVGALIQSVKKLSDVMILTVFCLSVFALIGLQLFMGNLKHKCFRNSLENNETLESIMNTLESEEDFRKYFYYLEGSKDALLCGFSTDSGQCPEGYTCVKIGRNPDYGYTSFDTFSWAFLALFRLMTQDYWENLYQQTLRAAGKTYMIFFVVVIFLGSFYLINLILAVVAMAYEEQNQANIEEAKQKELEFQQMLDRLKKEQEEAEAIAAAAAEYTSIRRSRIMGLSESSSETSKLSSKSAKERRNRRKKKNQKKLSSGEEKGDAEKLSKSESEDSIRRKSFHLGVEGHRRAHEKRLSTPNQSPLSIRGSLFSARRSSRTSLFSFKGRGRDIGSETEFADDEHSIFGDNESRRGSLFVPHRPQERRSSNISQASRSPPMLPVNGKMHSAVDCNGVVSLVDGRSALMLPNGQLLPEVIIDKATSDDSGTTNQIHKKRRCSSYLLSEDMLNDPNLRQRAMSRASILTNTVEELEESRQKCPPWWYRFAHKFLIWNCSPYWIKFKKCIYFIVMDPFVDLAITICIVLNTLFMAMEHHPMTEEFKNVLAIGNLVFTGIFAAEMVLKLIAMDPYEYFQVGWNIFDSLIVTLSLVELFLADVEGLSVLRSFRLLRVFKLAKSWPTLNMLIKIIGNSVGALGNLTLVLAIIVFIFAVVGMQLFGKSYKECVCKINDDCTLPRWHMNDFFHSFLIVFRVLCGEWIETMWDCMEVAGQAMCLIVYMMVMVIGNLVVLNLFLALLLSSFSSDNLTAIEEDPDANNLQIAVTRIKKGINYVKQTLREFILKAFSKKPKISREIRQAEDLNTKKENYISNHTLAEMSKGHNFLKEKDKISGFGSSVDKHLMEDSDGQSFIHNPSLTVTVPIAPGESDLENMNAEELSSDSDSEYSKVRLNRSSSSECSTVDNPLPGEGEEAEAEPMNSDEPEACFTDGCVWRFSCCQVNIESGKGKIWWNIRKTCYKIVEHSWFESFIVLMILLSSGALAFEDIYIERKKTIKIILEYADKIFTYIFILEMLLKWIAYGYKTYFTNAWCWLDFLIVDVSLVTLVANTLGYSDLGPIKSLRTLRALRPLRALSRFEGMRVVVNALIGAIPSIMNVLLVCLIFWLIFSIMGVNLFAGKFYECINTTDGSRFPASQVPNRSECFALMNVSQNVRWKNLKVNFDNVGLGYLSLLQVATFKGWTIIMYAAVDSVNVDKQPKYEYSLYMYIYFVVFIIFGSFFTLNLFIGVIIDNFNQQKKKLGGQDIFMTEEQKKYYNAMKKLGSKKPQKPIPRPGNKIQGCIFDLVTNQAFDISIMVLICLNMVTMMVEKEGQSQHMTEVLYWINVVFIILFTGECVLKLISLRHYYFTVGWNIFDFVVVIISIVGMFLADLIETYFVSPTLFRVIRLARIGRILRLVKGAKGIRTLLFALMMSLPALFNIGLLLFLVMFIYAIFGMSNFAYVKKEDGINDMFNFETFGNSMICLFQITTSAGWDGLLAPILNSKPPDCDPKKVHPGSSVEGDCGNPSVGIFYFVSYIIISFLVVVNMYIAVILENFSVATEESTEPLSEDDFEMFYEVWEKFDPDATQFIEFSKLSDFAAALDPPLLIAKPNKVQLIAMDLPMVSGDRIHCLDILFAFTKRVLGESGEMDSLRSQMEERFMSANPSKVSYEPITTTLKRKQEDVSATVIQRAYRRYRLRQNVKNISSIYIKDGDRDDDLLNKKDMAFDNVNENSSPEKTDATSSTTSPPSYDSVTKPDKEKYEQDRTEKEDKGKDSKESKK
row,IC50 [nM],Compound
1,776,"Nc1nc(Nc2cccc(F)c2)nc(-c2noc(C(=O)NC3Cc4ccccc4C3)n2)n1 [Example 225, 3-{4-amino-6-[(3-fluorophenyl)amino]-1,3,5-triazin-2-yl}-N-(2,3-dihydro-1H-inden-2-yl)-1,2,4-oxadiazole-5-carboxamide]"
2,9330,"Nc1nc(Nc2cccc(F)c2)nc(-c2noc(C(=O)N3CCOCC3)n2)n1 [Example 232, 2-N-(3-fluorophenyl)-6-{5-[(morpholin-4-yl)carbonyl]-1,2,4-oxadiazol-3-yl}-1,3,5-triazine-2,4-diamine]"
3,3260,"CN(c1ccccc1)c1nc(N)nc(-c2noc(C(=O)N3CCCCC3)n2)n1 [Example 277, 2-N-methyl-2-N-phenyl-6-{5-[(piperidin-1-yl)carbonyl]-1,2,4-oxadiazol-3-yl}-1,3,5-triazine-2,4-diamine]"
4,1350,"CN(c1ccccc1)c1nc(N)nc(-c2noc(-c3ccc(CN4CCCC4)nc3)n2)n1 [Example 293, 2-N-Methyl-2-N-phenyl-6-{5-[6-(pyrrolidin-1-ylmethyl)pyridin-3-yl]-1,2,4-oxadiazol-3-yl}-1,3,5-triazine-2,4-diamine]"
5,711,"CN(c1ccccc1)c1nc(N)nc(-c2noc(-c3ccc(C(N)=O)nc3)n2)n1 [Example 284, 5-(3-{4-Amino-6-[methyl(phenyl)amino]-1,3,5-triazin-2-yl}-1,2,4-oxadiazol-5-yl)pyridine-2-carboxamide]"
6,6290,"CN(c1ccc(F)nc1)c1nc(N)nc(-c2noc(-c3ccc(OCC(F)(F)F)nc3)n2)n1 [Example 432, 2-N-(6-Fluoropyridin-3-yl)-2-N-methyl-6-{5-[6-(2,2,2-trifluoroethoxy)pyridin-3-yl]-1,2,4-oxadiazol-3-yl}-1,3,5-triazine-2,4-diamine]"
7,731,"CN(c1ccccc1)c1nc(N)nc(-c2noc(-c3ccc(NCC(F)(F)F)cn3)n2)n1 [Example 471, 2-N-methyl-2-N-phenyl-6-(5-{5-[(2,2,2-trifluoroethyl)amino]pyridin-2-yl}-1,2,4-oxadiazol-3-yl)-1,3,5-triazine-2,4-diamine]"
8,804,"C=Cc1ccc(-c2nc(-c3nc(N)nc(N(C)c4ccccc4)n3)no2)cc1 [Example 305, 6-[5-(4-ethenylphenyl)-1,2,4-oxadiazol-3-yl]-2-N-methyl-2-N-phenyl-1,3,5-triazine-2,4-diamine]"
9,7290,"CN(c1ccccc1)c1nc(N)nc(-c2noc(N3CC[C@@H](OCC(F)(F)F)C3)n2)n1 [Example 443, 2-N-methyl-2-N-phenyl-6-{5-[(3R)-3-(2,2,2-trifluoroethoxy)pyrrolidin-1-yl]-1,2,4-oxadiazol-3-yl}-1,3,5-triazine-2,4-diamine]"
10,1980,"CN(c1ccccc1)c1nc(N)nc(-c2noc(N3CC(OCC(F)(F)F)C3)n2)n1 [Example 494, 2-N-methyl-2-N-phenyl-6-{5-[3-(2,2,2-trifluoroethoxy)azetidin-1-yl]-1,2,4-oxadiazol-3-yl}-1,3,5-triazine-2,4-diamine]"
11,1260,"CC(C)CN1CCC(c2nc(-c3nc(N)nc(N(C)c4ccccc4)n3)no2)CC1 [Example 510, 2-N-methyl-6-{5-[1-(2-methylpropyl)piperidin-4-yl]-1,2,4-oxadiazol-3-yl}-2-N-phenyl-1,3,5-triazine-2,4-diamine]"
12,548,"CN(c1ccccc1)c1nc(N)nc(-c2noc(-c3n[nH]cc3Cl)n2)n1 [Example 254, 6-[5-(4-chloro-1H-pyrazol-3-yl)-1,2,4-oxadiazol-3-yl]-2-N-methyl-2-N-phenyl-1,3,5-triazine-2,4-diamine]"
13,719,"CN(c1ccccc1)c1nc(N)nc(-c2noc(C(=O)N3CCC(COCCC(F)(F)F)CC3)n2)n1 [Example 464, 2-N-Methyl-2-N-phenyl-6-[5-({4-[(3,3,3-trifluoropropoxy)methyl]piperidin-1-yl}carbonyl)-1,2,4-oxadiazol-3-yl]-1,3,5-triazine-2,4-diamine]"
14,3070,"CN(c1ccccc1)c1nc(N)nc(-c2noc(C3CN(CC(F)(F)F)C3)n2)n1 [Example 314, 2-N-Methyl-2-N-phenyl-6-{5-[1-(2,2,2-trifluoroethyl)azetidin-3-yl]-1,2,4-oxadiazol-3-yl}-1,3,5-triazine-2,4-diamine]"
15,1510,"CN(c1ccccc1)c1nc(N)nc(-c2noc(-c3cccnc3C(=O)NCC(F)(F)F)n2)n1 [Example 375, 3-(3-{4-amino-6-[methyl(phenyl)amino]-1,3,5-triazin-2-yl}-1,2,4-oxadiazol-5-yl)-N-(2,2,2-trifluoroethyl)pyridine-2-carboxamide]"

row,Compound,IC50 [nM]
1,"Nc1nc(Nc2ccccc2)nc(-c2noc(-c3ccc(COC4CCC4)nc3)n2)n1 [Example 213, 6-{5-[6-(cyclobutoxymethyl)pyridin-3-yl]-1,2,4-oxadiazol-3-yl}-2-N-phenyl-1,3,5-triazine-2,4-diamine]",67

# Same assay, conditions: marker c: Automated patch clamp data; read-out: Nav 1.7 activity
row,IC50 [nM],Compound
1,8690,"COC(=O)c1cccc(Nc2nc(N)nc(-c3noc(-c4ccc(OCC(F)(F)F)nc4)n3)n2)c1 [Example 182, methyl 3-[(4-amino-6-{5-[6-(2,2,2-trifluoroethoxy)pyridin-3-yl]-1,2,4-oxadiazol-3-yl}-1,3,5-triazin-2-yl)amino]benzoate]"
2,518,"CCN(c1ccccc1)c1nc(N)nc(-c2noc(-c3cccs3)n2)n1 [Example 96, N-Ethyl-N-phenyl-6-(5-thiophen-2-yl-[1,2,4]oxadiazol-3-yl)-[1,3,5]triazine-2,4-diamine]"
3,5060,"Cc1cc(C)c(-c2nc(-c3nc(N)nc(N(C)c4ccccc4)n3)no2)cn1 [Example 154, 6-[5-(4,6-dimethylpyridin-3-yl)-1,2,4-oxadiazol-3-yl]-2-N-methyl-2-N-phenyl-1,3,5-triazine-2,4-diamine]"
4,42,"CCN(c1ccccc1)c1nc(N)nc(-c2noc(-c3ccc(OCC(F)(F)F)nc3)n2)n1 [Example 147, 2-N-ethyl-2-N-phenyl-6-{5-[6-(2,2,2-trifluoroethoxy)pyridin-3-yl]-1,2,4-oxadiazol-3-yl}-1,3,5-triazine-2,4-diamine]"
5,3310,"CN(c1ccccc1)c1nc(N)nc(-c2noc(-c3ccc(F)nc3)n2)n1 [Example 158, 6-[5-(6-fluoropyridin-3-yl)-1,2,4-oxadiazol-3-yl]-2-N-methyl-2-N-phenyl-1,3,5-triazine-2,4-diamine]"
6,933,"CC(C)N(c1ccccc1)c1nc(N)nc(-c2noc(-c3ccco3)n2)n1 [Example 30, 6-(5-Furan-2-yl-[1,2,4]oxadiazol-3-yl)-N-isopropyl-N-phenyl-[1,3,5]triazine-2,4-diamine]"
7,206,"CN(c1cccc(Cl)c1)c1nc(N)nc(-c2noc(-c3cccs3)n2)n1 [Example 101, N-(3-Chlorophenyl)-N-methyl-6-(5-thiophen-2-yl-[1,2,4]oxadiazol-3-yl)-[1,3,5]triazine-2,4-diamine]"
8,2080,"CN(c1ccccc1)c1nc(N)nc(-c2noc(-c3cnco3)n2)n1 [Example 127, N-Methyl-6-(5-oxazol-5-yl-[1,2,4]oxadiazol-3-yl)-N-phenyl-[1,3,5]triazine-2,4-diamine]"
9,287,"CS(=O)(=O)c1cccc(Nc2nc(N)nc(-c3noc(-c4ccc(OCC(F)(F)F)nc4)n3)n2)c1 [Example 189, 2-N-(3-methanesulfonylphenyl)-6-{5-[6-(2,2,2-trifluoroethoxy)pyridin-3-yl]-1,2,4-oxadiazol-3-yl}-1,3,5-triazine-2,4-diamine]"
